pIC50: −log10 of the molar value.
Key:
[1] = target: Protein kinase C gamma type (Homo sapiens) (UniProt P05129); assay: Inhibition of PKC gamma (unknown origin) at 50 nM by Z'LYTE screening method relative to control
[2] = target: T1, Eukaryotic elongation factor 2 kinase (Homo sapiens) (UniProt O00418); assay: Inhibition of EEF2K (unknown origin) at 50 nM by Z'LYTE screening method relative to control
T1 sequence (whole entry): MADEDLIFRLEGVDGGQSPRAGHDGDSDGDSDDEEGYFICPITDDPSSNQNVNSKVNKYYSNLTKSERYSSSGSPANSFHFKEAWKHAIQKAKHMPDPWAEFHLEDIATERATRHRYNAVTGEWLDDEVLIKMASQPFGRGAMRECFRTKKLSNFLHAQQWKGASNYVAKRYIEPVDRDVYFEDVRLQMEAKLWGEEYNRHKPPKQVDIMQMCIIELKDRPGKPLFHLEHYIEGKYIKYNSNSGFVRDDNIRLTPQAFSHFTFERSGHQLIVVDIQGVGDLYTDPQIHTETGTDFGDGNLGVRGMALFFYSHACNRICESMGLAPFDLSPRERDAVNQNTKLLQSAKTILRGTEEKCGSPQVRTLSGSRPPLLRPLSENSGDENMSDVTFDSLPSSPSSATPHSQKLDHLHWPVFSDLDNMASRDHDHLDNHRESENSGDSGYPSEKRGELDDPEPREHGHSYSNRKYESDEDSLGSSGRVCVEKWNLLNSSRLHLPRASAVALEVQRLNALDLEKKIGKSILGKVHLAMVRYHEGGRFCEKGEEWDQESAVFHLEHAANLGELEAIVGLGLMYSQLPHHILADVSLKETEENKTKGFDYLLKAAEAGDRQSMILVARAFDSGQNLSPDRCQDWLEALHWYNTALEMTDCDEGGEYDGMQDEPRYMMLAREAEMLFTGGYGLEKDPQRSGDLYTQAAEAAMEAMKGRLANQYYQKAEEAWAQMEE

[3] = target: Serine/threonine-protein kinase mTOR (Homo sapiens) (UniProt P42345); assay: Inhibition of FRAP1 (unknown origin) at 50 nM by Z'LYTE screening method relative to control
[4] = target: Protein kinase C beta type (Homo sapiens) (UniProt P05771); assay: Inhibition of PKCbeta1 (unknown origin) at 50 nM by Z'LYTE screening method relative to control
[5] = target: ALK tyrosine kinase receptor (Homo sapiens) (UniProt Q9UM73); assay: Inhibition of ALK (unknown origin) at 50 nM by Z'LYTE screening method relative to control
[6] = target: T2, Protein kinase C zeta type (Homo sapiens) (UniProt Q05513); assay: Inhibition of PKCzeta (unknown origin) at 50 nM by Z'LYTE screening method relative to control
T2 sequence (whole entry): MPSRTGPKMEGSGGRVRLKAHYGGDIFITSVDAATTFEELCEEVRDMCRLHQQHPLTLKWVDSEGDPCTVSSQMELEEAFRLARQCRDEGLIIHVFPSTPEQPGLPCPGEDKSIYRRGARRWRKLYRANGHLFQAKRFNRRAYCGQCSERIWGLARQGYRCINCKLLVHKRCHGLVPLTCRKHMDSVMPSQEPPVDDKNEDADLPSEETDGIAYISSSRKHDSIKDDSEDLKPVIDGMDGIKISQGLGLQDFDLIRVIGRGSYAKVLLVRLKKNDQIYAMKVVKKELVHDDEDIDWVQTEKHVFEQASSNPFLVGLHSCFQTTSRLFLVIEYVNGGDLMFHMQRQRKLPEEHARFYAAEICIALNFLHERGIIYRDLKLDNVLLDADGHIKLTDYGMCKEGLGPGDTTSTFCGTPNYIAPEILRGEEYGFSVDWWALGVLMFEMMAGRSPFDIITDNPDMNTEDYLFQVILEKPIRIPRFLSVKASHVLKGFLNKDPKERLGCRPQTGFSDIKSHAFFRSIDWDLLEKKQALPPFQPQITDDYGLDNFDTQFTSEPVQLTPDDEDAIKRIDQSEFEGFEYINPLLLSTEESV

[7] = target: Focal adhesion kinase 1 (Homo sapiens) (UniProt Q05397); assay: Inhibition of FAK (unknown origin) at 50 nM by Z'LYTE screening method relative to control
[8] = target: CDK1/Cyclin A (Homo sapiens) (UniProt P06493+P20248); assay: Inhibition of CDK1/CyclinA (unknown origin) at 50 nM by Z'LYTE screening method relative to control; assay type: protein-complex assay
[9] = target: Mitogen-activated protein kinase 8 (Homo sapiens) (UniProt P45983); assay: Inhibition of MAPK8 (unknown origin) at 50 nM by Z'LYTE screening method relative to control
[10] = target: T3, Aurora kinase C (Homo sapiens) (UniProt Q9UQB9); assay: Inhibition of AURC (unknown origin) at 50 nM by Z'LYTE screening method relative to control
T3 sequence (whole entry): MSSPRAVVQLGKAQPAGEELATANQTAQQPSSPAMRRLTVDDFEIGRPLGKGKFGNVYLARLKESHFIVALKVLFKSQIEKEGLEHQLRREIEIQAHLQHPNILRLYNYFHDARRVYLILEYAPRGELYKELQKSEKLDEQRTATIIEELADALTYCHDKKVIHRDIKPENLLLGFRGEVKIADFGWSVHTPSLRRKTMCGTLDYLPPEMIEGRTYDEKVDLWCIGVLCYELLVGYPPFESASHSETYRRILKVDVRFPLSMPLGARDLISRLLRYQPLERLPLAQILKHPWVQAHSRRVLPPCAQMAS

[11] = target: Cell division control protein 42 homolog (Homo sapiens) (UniProt P60953); assay: Inhibition of CDC42 delta (unknown origin) at 50 nM by Z'LYTE screening method relative to control
[12] = target: Tyrosine-protein kinase Yes (Homo sapiens) (UniProt P07947); assay: Inhibition of YES1 (unknown origin) at 50 nM by Z'LYTE screening method relative to control
[13] = target: Serine/threonine-protein kinase PAK 1 (Homo sapiens) (UniProt Q13153); assay: Inhibition of PAK1 (unknown origin) at 50 nM by Z'LYTE screening method relative to control
[14] = target: Mitogen-activated protein kinase 11 (Homo sapiens) (UniProt Q15759); assay: Inhibition of MAPK11 (unknown origin) at 50 nM by Z'LYTE screening method relative to control
4T1 = assay: Cytotoxicity against mouse 4T1 cells assessed as reduction in cell viability incubated for 96 hrs by MTT assay; assay type: functional, cell-based; settings: 4T1, 96 h
[15] = target: Protein kinase C theta type (Homo sapiens, UniProt Q04759); assay: Inhibition of PKCtheta (unknown origin) at 50 nM by Z'LYTE screening method relative to control
Chain of Protein kinase C theta type (Q04759 whole entry, looked up): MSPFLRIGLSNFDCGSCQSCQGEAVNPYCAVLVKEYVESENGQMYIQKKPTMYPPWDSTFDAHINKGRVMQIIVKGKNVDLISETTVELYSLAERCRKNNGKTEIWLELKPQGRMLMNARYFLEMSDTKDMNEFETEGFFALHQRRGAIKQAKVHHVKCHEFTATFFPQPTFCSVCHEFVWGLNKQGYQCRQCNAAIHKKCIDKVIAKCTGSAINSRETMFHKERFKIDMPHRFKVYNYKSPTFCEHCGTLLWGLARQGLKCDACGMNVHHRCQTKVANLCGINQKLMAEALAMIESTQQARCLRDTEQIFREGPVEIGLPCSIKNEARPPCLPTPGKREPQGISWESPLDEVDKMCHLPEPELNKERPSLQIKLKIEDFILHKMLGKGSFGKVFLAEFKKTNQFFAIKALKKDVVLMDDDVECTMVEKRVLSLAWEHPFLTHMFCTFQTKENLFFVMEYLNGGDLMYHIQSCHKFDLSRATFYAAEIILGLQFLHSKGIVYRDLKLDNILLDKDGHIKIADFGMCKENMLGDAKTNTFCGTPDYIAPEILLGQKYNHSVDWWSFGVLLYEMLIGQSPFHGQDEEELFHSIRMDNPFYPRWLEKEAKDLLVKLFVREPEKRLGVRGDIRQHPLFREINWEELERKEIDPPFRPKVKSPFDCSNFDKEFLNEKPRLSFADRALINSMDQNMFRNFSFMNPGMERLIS

Chain of Protein kinase C beta type (Homo sapiens) (P05771 2-671 limits assumed): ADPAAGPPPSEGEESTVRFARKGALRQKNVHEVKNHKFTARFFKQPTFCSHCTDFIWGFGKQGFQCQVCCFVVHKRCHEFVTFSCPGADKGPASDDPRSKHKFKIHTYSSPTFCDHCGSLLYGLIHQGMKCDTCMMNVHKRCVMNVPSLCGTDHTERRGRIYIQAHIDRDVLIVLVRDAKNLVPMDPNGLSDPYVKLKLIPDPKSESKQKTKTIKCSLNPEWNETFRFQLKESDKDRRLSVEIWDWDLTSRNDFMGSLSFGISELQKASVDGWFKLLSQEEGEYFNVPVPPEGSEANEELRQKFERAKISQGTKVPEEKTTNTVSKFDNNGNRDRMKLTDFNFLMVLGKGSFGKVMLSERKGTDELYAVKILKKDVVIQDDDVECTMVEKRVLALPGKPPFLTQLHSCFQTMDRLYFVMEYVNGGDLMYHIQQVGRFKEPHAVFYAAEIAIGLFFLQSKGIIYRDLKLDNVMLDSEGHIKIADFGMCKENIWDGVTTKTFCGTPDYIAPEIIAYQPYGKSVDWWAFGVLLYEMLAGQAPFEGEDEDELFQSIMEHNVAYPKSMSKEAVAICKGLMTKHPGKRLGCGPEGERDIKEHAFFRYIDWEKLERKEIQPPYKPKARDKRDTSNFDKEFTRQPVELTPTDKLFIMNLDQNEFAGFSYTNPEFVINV
Chain of Mitogen-activated protein kinase 11 (Homo sapiens) (Q15759 whole entry): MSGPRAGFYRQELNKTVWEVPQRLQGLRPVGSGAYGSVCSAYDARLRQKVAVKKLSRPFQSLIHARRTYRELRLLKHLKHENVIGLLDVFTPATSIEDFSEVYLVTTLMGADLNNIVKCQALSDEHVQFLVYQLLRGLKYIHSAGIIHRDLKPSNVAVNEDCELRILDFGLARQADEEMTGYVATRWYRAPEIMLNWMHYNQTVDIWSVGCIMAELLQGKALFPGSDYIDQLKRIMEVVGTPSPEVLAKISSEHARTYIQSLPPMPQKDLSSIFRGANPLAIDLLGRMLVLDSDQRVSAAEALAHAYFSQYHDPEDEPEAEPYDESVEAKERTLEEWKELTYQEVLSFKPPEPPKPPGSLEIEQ
Chain of Tyrosine-protein kinase Yes (Homo sapiens) (P07947 2-543 limits assumed): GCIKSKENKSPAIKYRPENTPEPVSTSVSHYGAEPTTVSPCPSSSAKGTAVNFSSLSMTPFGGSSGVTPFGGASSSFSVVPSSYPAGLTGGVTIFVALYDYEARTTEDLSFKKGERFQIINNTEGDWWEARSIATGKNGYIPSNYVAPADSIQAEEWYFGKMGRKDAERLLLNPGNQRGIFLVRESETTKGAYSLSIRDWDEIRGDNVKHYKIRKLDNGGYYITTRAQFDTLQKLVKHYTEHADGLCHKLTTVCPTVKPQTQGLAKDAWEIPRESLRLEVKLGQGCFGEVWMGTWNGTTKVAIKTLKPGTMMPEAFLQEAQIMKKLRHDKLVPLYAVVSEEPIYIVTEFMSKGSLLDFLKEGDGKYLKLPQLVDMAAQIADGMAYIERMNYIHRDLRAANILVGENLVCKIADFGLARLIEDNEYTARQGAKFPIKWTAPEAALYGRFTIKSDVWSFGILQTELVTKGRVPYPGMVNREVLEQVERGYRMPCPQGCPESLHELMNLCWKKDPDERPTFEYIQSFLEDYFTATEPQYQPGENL
Chain of Cell division control protein 42 homolog (Homo sapiens) (P60953 whole entry, looked up): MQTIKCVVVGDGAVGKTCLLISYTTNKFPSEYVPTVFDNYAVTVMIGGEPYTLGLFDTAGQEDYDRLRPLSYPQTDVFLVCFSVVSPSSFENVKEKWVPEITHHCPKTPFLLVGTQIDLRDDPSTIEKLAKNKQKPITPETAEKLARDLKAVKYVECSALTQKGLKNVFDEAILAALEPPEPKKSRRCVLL
Chain of ALK tyrosine kinase receptor (Homo sapiens) (Q9UM73 19-1620 limits assumed): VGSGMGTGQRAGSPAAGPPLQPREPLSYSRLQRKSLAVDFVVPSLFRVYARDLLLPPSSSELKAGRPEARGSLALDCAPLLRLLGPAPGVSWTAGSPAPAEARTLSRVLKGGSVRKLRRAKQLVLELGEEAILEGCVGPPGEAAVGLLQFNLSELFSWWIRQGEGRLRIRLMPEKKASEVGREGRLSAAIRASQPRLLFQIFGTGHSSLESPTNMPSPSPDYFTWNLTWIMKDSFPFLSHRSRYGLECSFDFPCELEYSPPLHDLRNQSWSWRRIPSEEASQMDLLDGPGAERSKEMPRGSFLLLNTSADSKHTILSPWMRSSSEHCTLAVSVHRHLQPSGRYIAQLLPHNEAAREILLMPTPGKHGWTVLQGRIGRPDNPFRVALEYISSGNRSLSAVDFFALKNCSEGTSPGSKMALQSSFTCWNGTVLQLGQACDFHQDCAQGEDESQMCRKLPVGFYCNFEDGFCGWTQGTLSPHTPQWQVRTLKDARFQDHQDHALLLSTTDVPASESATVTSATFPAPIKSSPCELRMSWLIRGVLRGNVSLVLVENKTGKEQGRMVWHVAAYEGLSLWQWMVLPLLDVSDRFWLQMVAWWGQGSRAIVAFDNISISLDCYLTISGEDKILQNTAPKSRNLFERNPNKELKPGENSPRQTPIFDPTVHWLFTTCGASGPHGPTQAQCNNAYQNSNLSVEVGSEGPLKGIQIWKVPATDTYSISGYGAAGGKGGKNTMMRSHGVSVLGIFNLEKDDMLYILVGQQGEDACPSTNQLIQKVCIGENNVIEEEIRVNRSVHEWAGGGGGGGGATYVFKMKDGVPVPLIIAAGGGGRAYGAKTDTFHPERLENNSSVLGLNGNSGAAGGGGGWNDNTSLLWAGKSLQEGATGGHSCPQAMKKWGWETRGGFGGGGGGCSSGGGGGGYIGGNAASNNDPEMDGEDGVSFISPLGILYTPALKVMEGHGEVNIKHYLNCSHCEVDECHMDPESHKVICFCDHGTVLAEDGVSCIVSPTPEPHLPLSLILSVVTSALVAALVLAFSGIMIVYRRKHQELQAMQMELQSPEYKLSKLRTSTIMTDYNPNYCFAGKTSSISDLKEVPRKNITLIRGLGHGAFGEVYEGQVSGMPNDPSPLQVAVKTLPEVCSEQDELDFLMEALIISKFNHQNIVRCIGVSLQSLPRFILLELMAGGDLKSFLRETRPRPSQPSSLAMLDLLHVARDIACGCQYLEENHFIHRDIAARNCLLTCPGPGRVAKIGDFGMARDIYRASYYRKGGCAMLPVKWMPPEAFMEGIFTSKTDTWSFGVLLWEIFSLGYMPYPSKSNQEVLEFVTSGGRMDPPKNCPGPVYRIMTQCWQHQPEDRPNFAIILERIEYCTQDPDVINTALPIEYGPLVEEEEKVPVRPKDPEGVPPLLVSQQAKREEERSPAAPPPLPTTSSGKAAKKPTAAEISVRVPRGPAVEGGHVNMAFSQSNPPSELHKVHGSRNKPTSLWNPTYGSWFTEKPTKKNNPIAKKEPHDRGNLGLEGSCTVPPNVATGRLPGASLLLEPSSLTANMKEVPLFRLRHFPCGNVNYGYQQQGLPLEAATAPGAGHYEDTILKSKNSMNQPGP
Chain of Mitogen-activated protein kinase 8 (Homo sapiens) (P45983 whole entry): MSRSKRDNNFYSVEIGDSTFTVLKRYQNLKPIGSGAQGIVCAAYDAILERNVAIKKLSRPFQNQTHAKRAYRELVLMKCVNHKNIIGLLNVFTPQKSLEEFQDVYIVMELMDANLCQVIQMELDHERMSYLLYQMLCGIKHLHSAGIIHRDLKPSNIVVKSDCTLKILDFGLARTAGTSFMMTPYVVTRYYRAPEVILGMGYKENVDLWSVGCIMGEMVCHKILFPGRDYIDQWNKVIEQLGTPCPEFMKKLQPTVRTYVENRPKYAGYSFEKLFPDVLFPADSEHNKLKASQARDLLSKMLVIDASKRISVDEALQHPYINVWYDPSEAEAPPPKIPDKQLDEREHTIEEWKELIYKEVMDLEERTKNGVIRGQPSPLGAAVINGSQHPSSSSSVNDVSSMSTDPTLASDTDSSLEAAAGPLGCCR
Chain of Serine/threonine-protein kinase PAK 1 (Homo sapiens) (Q13153 whole entry): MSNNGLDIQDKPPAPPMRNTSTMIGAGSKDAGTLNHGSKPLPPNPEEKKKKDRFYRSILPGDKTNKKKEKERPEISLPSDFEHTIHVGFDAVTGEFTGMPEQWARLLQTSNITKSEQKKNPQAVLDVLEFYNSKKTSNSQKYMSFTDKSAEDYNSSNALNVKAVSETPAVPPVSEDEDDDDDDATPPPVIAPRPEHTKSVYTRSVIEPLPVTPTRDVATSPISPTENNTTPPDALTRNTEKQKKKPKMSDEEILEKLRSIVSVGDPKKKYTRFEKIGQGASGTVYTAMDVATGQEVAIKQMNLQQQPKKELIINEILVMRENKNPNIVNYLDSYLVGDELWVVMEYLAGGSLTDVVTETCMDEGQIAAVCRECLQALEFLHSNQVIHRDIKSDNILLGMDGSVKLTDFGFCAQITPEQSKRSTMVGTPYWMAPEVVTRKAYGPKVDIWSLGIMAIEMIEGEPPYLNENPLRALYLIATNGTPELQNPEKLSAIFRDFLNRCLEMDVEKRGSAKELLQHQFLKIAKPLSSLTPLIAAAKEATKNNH

Compound `O=c1c2ccccc2[se]n1-c1nc(N[C@@H]2C[C@H]3CC[C@@H]2C3)c2nc[nH]c2n1` has an inhibition [1] of 0%, an inhibition [2] of 2% and an inhibition [3] of 0%. For the same compound, the inhibition [4] was 0%, the inhibition [5] was 0% and the inhibition [6] was 7%. For the same compound, the inhibition [7] was 0%, the inhibition [8] was 1% and the inhibition [9] was 0%. The inhibition [10] was 9%, the inhibition [11] was 0% and the inhibition [12] was 9%. It also gave an inhibition [13] of 1%, an inhibition [14] of 4% and a pIC50 (4T1) of 4.50. It also gave an inhibition [15] of 15%.
